26 molecules from US20240199546A1, “INHIBITORS OF SOLUTE CARRIER FAMILY 6A MEMBER 19 (SLC6A19) AND METHODS OF USE THEREOF” (Maze Therapeutics, Inc., priority 2022, published 2024) can be followed below.

The target in this assay is T1, human SLC6A19 and TMEM27 (Homo sapiens, UniProt Q695T7).
T1 construct: expressed in transfected cells
T1 sequence (Q695T7 1-634): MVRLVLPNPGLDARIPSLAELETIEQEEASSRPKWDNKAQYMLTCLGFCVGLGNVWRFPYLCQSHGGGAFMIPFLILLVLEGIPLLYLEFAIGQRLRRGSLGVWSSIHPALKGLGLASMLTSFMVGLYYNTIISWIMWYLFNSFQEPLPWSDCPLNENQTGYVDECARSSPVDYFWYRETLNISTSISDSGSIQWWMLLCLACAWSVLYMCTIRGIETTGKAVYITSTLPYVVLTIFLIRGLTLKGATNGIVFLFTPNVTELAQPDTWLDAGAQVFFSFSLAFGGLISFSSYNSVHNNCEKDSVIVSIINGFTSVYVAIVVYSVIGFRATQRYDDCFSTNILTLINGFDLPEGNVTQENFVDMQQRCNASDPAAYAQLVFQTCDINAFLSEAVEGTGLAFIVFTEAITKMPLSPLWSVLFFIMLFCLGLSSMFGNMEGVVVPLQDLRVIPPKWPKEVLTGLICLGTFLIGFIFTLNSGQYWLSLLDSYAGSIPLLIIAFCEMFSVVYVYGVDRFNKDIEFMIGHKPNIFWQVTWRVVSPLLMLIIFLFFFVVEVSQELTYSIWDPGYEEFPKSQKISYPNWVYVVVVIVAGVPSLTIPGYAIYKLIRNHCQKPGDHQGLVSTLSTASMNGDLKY
T1 sequence (Q9HBJ8 15-222 partner): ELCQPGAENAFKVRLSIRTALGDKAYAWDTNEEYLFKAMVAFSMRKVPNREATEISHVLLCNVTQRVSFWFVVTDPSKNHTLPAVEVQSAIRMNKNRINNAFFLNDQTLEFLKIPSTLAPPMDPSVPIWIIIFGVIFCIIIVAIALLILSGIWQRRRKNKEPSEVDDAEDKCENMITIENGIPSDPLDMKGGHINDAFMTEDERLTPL
Description: Radiolabelled (3H) leucine uptake in CHO cells with doxycycline-inducible expression of human SLC6A19 and TMEM27 (Example B-1). It counts as cell-based. The following applies: CHO cells with doxycycline-inducible expression of human SLC6A19 and TMEM27, read-out: SLC6A19_Radioligand Uptake Assay IC50. A digest of the protocol:
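CHO cells were induced with doxycycline for 18 h at 37 °C, washed in HBSS, then exposed to compounds for 1 h: 8-point, 3-fold dilutions in duplicate, 0.5% DMSO final. Uptake measured by scintillation counting after 2 h shaking. Activity normalized with positive control as 0% and DMSO as 100%.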
One may read the IC50 as the point on the concentration scale where inhibition reaches its midpoint. In the case of `CC1(C(=O)NCc2cc3cc(Cl)c(CCn4nccn4)cc3[nH]2)CC1` [Compound 586, N-((6-(2-(2H-1,2,3-triazol-2-yl)ethyl)-5-chloro-1H-indol-2-yl)methyl)-1-methylcyclopropane-1-carboxamide], the IC50 was 176 nM.
For `COc1cc2cc(CNC(=O)C3(C)CC3)[nH]c2cc1CCn1cccn1` [Compound 587, N-((6-(2-(1H-pyrazol-1-yl)ethyl)-5-methoxy-1H-indol-2-yl)methyl)-1-methylcyclopropane-1-carboxamide] the value was 260 nM; for `COc1cc2cc(CNC(=O)C3(C)CC3)[nH]c2cc1CCn1ccnn1` [Compound 588, N-((6-(2-(1H-1,2,3-triazol-1-yl)ethyl)-5-methoxy-1H-indol-2-yl)methyl)-1-methylcyclopropane-1-carboxamide], 3670 nM; for `CC1(C(=O)NCc2cc3cc(Cl)c(CCn4ccnc4)cc3[nH]2)CC1` [Compound 589, N-((6-(2-(1H-imidazol-1-yl)ethyl)-5-chloro-1H-indol-2-yl)methyl)-1-methylcyclopropane-1-carboxamide], 4760 nM.
For `COc1cc2cc(CNC(=O)C3(C)CC3)[nH]c2cc1CCn1nccn1` [Compound 591, N-((6-(2-(2H-1,2,3-triazol-2-yl)ethyl)-5-methoxy-1H-indol-2-yl)methyl)-1-methylcyclopropane-1-carboxamide] the value was 184 nM; for `Cc1cc(CCc2cc3[nH]c(CNC(=O)C4(C)CC4)cc3cc2F)no1` [Compound 593, N-((5-fluoro-6-(2-(5-methylisoxazol-3-yl)ethyl)-1H-indol-2-yl)methyl)-1-methylcyclopropane-1-carboxamide], 220 nM; for `CC1(C(=O)NCc2cc3cc(F)c(CCc4cscn4)cc3[nH]2)CC1` [Compound 594, N-((5-fluoro-6-(2-(thiazol-4-yl)ethyl)-1H-indol-2-yl)methyl)-1-methylcyclopropane-1-carboxamide], 120 nM.
For `O=C(NCc1cc2cc(Cl)c(CCc3ccon3)cc2[nH]1)N1CCC1` [Compound 595, N-((5-chloro-6-(2-(isoxazol-3-yl)ethyl)-1H-indol-2-yl)methyl)azetidine-1-carboxamide] the value was 240 nM; for `O=C(NCc1cc2cc(OC(F)(F)F)c(CCc3cscn3)cc2[nH]1)N1CCC1` [Compound 596, N-((6-(2-(thiazol-4-yl)ethyl)-5-(trifluoromethoxy)-1H-indol-2-yl)methyl)azetidine-1-carboxamide], 336 nM.
With `O=C(NCc1cc2cc(OC(F)(F)F)c(CCc3ccon3)cc2[nH]1)N1CCC1` [Compound 597, N-((6-(2-(isoxazol-3-yl)ethyl)-5-(trifluoromethoxy)-1H-indol-2-yl)methyl)azetidine-1-carboxamide], the IC50 amounted to 307 nM.
The value for `O=C(NCc1cc2cc(OC(F)(F)F)c(CCc3ccon3)cc2[nH]1)N1CCCC1` [Compound 598, N-((6-(2-(isoxazol-3-yl)ethyl)-5-(trifluoromethoxy)-1H-indol-2-yl)methyl)pyrrolidine-1-carboxamide] was 358 nM.
For `O=C(NCc1cc2cc(Cl)c(CCc3cscn3)cc2[nH]1)N1CCC1` [Compound 599, N-((5-chloro-6-(2-(thiazol-4-yl)ethyl)-1H-indol-2-yl)methyl)azetidine-1-carboxamide] the value was 163 nM.
For `O=C(NCc1cc2cc(F)c(CCc3cscn3)cc2[nH]1)N1CCC1` [Compound 600, N-((5-fluoro-6-(2-(thiazol-4-yl)ethyl)-1H-indol-2-yl)methyl)azetidine-1-carboxamide], the IC50 was found to be 145 nM.
The value for `O=C(NCc1cc2cc(F)c(CCc3cscn3)cc2[nH]1)N1CCCC1` [Compound 601, N-((5-fluoro-6-(2-(thiazol-4-yl)ethyl)-1H-indol-2-yl)methyl)pyrrolidine-1-carboxamide] was 174 nM; that for `CC1(C(=O)NCc2cc3cc(OC(F)F)c(OCc4cscn4)cc3[nH]2)CC1` [Compound 604, N-((5-(difluoromethoxy)-6-(thiazol-4-ylmethoxy)-1H-indol-2-yl)methyl)-1-methylcyclopropane-1-carboxamide] was 391 nM.
The value for `CC1(C(=O)NCc2cc3cc(OC(F)F)c(OCc4ccon4)cc3[nH]2)CC1` [Compound 605, N-((5-(difluoromethoxy)-6-(isoxazol-3-ylmethoxy)-1H-indol-2-yl)methyl)-1-methylcyclopropane-1-carboxamide] was 143 nM.
For `Cc1cc(COc2cc3[nH]c(CNC(=O)C4(C)CC4)cc3cc2OC(F)F)on1` [Compound 606, N-((5-(difluoromethoxy)-6-((3-methylisoxazol-5-yl)methoxy)-1H-indol-2-yl)methyl)-1-methylcyclopropane-1-carboxamide] the value was 320 nM; for `CC1(C(=O)NCc2cc3cc(Cl)c(OCc4cc5ccccc5[nH]4)cc3[nH]2)CC1` [Compound 607, N-((6-((1H-indol-2-yl)methoxy)-5-chloro-1H-indol-2-yl)methyl)-1-methylcyclopropane-1-carboxamide], over 6440 nM.
Take `CC1(C(=O)NCc2cc3cc(Cl)c(CNc4ccccn4)cc3[nH]2)CC1` [Compound 609, N-((5-chloro-6-((pyridin-2-ylamino)methyl)-1H-indol-2-yl)methyl)-1-methylcyclopropane-1-carboxamide]: the IC50 turned out to be 339 nM.
As to `CC1(C(=O)NCc2cc3cc(Cl)c(CNc4cccnc4)cc3[nH]2)CC1` [Compound 610, N-((5-chloro-6-((pyridin-3-ylamino)methyl)-1H-indol-2-yl)methyl)-1-methylcyclopropane-1-carboxamide], the IC50 was found to be 991 nM.
For `CC1(C(=O)NCc2cc3cc(F)c(CNc4ccon4)cc3[nH]2)CC1` [Compound 611, N-((5-fluoro-6-((isoxazol-3-ylamino)methyl)-1H-indol-2-yl)methyl)-1-methylcyclopropane-1-carboxamide] the value was 842 nM; for `CC1(C(=O)NCc2cc3cc(F)c(COc4ccon4)cc3[nH]2)CC1` [Compound 612, N-((5-fluoro-6-((isoxazol-3-yloxy)methyl)-1H-indol-2-yl)methyl)-1-methylcyclopropane-1-carboxamide], 152 nM; for `CC1(C(=O)NCc2cc3cc(Cl)c(COc4ccon4)cc3[nH]2)CC1` [Compound 613, N-((5-chloro-6-((isoxazol-3-yloxy)methyl)-1H-indol-2-yl)methyl)-1-methylcyclopropane-1-carboxamide], 82.4 nM.
On to `CNCC(=O)NCc1cc2cc(Cl)c(OCc3cscn3)cc2[nH]1` [Compound 614, N-((5-chloro-6-(thiazol-4-ylmethoxy)-1H-indol-2-yl)methyl)-2-(methylamino)acetamide], for which the IC50 worked out at 3260 nM.
Turning to `CNCC(=O)NCc1cc2cc(Cl)c(OCc3cc(C)no3)cc2[nH]1` [Compound 615, N-((5-chloro-6-((3-methylisoxazol-5-yl)methoxy)-1H-indol-2-yl)methyl)-2-(methylamino)acetamide], the IC50 stood at 2070 nM.
The value for `Cc1cc(COc2cc3[nH]c(CNC(=O)[C@H]4CCN4)cc3cc2Cl)on1` [Compound 616, (R)-N-((5-chloro-6-((3-methylisoxazol-5-yl)methoxy)-1H-indol-2-yl)methyl)azetidine-2-carboxamide] was 2730 nM.
